Results as given in US20150141375A1 (priority 2009, published 2015).
Several values for one entry are separate records, joined by “and”; a condition that tells them apart may be missing. Equal values may be shown once. Entries after “also recorded” stand apart in the source; their conditions may differ. Read-outs that look alike come from different tables or passages of the source.

Key:
BK Virus [1] = settings: has been reported; read-out: EC50 for BK virus infection; cited from earlier work
BK Virus [2] = test: In vitro potency against BK Virus in WI-38 cells; assay type: cell-based
JCV = test: First fifteen EIND patients: JCV; assay type: in vivo, human; settings: one patient
Adenovirus = Adenovirus IC50s for CMX001, serotypes/isolates; assay type: cell-based
HSV-2 = test: In vitro efficacy against HSV-2 strains in HFF (CPE, plaque reduction); assay type: cell-based
Excerpt: In vitro screening by CPE assay in human foreskin fibroblast (HFF) cells with confirmation using plaque reduction assays in HFF.

AdV 5 = tested on: AdV 5; design: species or system Syrian Hamster; settings: hamster, in vivo
BKV(Dunlop) = BKV(Dunlop) replication in primary human RPTECs (qPCR, RT-qPCR, western blot, immunofluorescence); assay type: cell-based, BK virus; settings: for antiviral activity of stored stock compared to freshly prepared drug: tested at 0.31 uM
Protocol: RPTECs were infected with BKV(Dunlop). CMX001 was added before and 2 h postinfection (hpi). Cells and supernatants were harvested 24-72 hpi. BKV replication was examined by TaqMan assays, western blotting, IF staining and viability of RPTECs was examined by WST-1 assay, BrdU incorporation and a TaqMan assay.
Primary human renal proximal tubule epithelial cells (RPTECs), BKV(Dunlop) and all methods as previously described by Bernhoff et al (See Bernhoff et al., Cidofovir inhibits polyomavirus BK replication in human renal tubular cells downstream of viral early gene expression, Am J Transplant 8, 1413-1422 (2008).) Only one exception, quantitative PCR (qPCR) to quantify intracellular or extracellular BKV DNA load was performed with a different primer/probe set also targeting the LTag gene (See Hirsch, et al., J. Prospective study of polyomavirus type BK replication and nephropathy in renal-transplant recipients, N Engl J Med., 347, 488-496 (2002)). Before each experiment, CMX001 was freshly dissolved to 1 mg/ml in methanol/water/ammonium hydroxide (50/50/2). It was further diluted in RPTEC growth medium.
Before each experiment, CMX001 was freshly dissolved to 1 mg/ml in methanol/water/ammonium hydroxide (50/50/2) and further diluted in RPTEC growth medium. About 50% confluent RPTECs were infected with BKV (Dunlop) MOI 1. After 2 h incubation at 37° C., the virus was replaced with fresh medium with or without CMX001 unless otherwise stated.
At 24, 48 and 72 hpi cells were lysed and total RNA extracted using the mirVana PARIS kit (Ambion). RNA samples were treated with DNase turbo (Ambion) to remove residual DNA before the RNA quality was checked by agarose gel electrophoresis and RNA concentration was determined. cDNA was generated from 250 ng RNA per sample using the High Capacity cDNA kit (Applied Biosystems).
To assay extracellular BKV loads, cell culture supernatants were harvested at 24, 48 and 72 hpi and frozen in −70° C. until automatic extraction by a robot (GenoM-48, Qiagen, www.qiagen.com). For intracellular BKV loads, cells were washed, trypsinized and pelleted at 220 g for 10 min, resuspended in G2 buffer from the MagAttract DNA Mini M48 kit (Qiagen) and frozen at −70° C. until extraction with the same robot.
To quantify intracellular or extracellular BKV DNA load, a quantitative PCR (qPCR) with primers and probe targeting the large T-antigen (LT-ag) gene was used. For normalization of intracellular BKV DNA each sample was analyzed in parallel by the qPCR for the gene for aspartoacylase (ACY) to correct for cellular DNA.
Cells were lysed in Cell Disruption buffer (mirVana PARIS kit, Ambion) 24, 48 and 72 hpi and stored at −70° C. until separation with SDS polyacrylamidegel electrophoresis (SDS-PAGE) followed by blotting onto PVDF membrane. Detection of BKV and cellular proteins was performed with polyclonal rabbit antiserum directed against LT-ag (1:2000), VP1 (1:10000), or agno (1:10000) (1, 27) and a monoclonal mouse antibody directed against GAPDH (Ab8245; 1:5000, Abcam, www.abcam.com) followed by anti-rabbit and anti-mouse infrared dye-labeled secondary antibodies (IR Dye 800, Rockland, www.rockland-inc.com and Alexa Fluor 680, Invitrogen, www.invitrogen.com) both 1:5000 before detection with Licor Odyssey Infrared detection system.
Cells were washed in PBS, methanol fixed, blocked with 3% goat-serum in PBS for 30 min, followed by subsequently incubation with primary (37° C.) and secondary (r.t.) antibodies for 30 min. Primary antibodies were monoclonal anti-SV40 LT-ag antibody (Ab-2 Pab416; 1:100, Chemicon, www.chemicon.com) and polyclonal rabbit antiserum directed against agno or VP1 (both 1:1000). The secondary antibodies were anti-mouse conjugated with AlexaFluor 568 and anti-rabbit conjugated with AlexaFluor 488 (1:500; Molecular Probes, www.invitrogen.com). Nuclei were labeled with DRAQ5™ (Biostatus, www.biostatus.com). […]

CCCCCCCCCCCCCCCCOCCCOP(=O)(O)CO[C@H](CO)Cn1ccc(N)nc1=O [CMX001, Hexadecyloxypropyl-cidofovir]
EC50 (BK Virus [1]): 140 nM
EC50 (BK Virus [2]; Betapolyomavirus hominis, WI-38): 130 nM
selectivity index (SI)-50 (BK Virus [2]; WI-38, cells harvested 7 days after infection): 113
JCV in cerebrospinal fluid (CSF) and urine (JCV): became undetectable
IC50 (Adenovirus; Ad14 (three isolates)): 41 nM and 36 nM
IC50 (Adenovirus; unidentified adenovirus, Ad3): 48 nM
IC50 (Adenovirus; unidentified adenovirus, Ad3 ATCC): 34 nM
IC50 (Adenovirus; unidentified adenovirus, Ad4): 32 nM
IC50 (Adenovirus; unidentified adenovirus, Ad4 ATCC): 20 nM
IC50 (Adenovirus; unidentified adenovirus, Ad5 ATCC): 46 nM
IC50 (Adenovirus; unidentified adenovirus, Ad7): 34 nM
IC50 (Adenovirus; unidentified adenovirus, Ad7 ATCC): 65 nM
IC50 (Adenovirus; unidentified adenovirus, Ad14 (three isolates)): 34 nM
IC50 (Adenovirus; unidentified adenovirus, Ad14 ATCC): 22 nM
IC50 (Adenovirus; unidentified adenovirus, Ad21): 44 nM
EC50 (HSV-2; Human alphaherpesvirus 2, ACV resistant strain 11572): 27 ± 18 nM
EC50 (HSV-2; Human alphaherpesvirus 2, ACV resistant strain 11680): 9 ± 0.7 nM
EC50 (HSV-2; Human alphaherpesvirus 2, ACV resistant strain 12247): 21 ± 12 nM
EC50 (HSV-2; Human alphaherpesvirus 2, ACV resistant strain AG-3): 23 ± 9 nM
EC50 (HSV-2; Human alphaherpesvirus 2, G (wild type), Table 9): 29 ± 15 nM
EC50 (HSV-2; Human alphaherpesvirus 2, strain G): 10 ± 10 nM
EC50 (HSV-2; Human alphaherpesvirus 2, strain MS): 80 ± 70 nM
EC50 (HSV-2; Human alphaherpesvirus 2, strain SR): 20 ± 20 nM
reduction of infectious AdV5 titers in liver (AdV 5): 6 logs
BKV-infected cells, immunofluorescence (BKV(Dunlop); 10 μM CMX001, 72 hpi): no BKV-infected cell was observed
IC90 (BKV(Dunlop); Betapolyomavirus hominis, RPTEC, RPTECs, 72 h p.i., viral input subtracted, read-out: IC90, extracellular BKV load): 310 nM
reduction of late protein expression (BKV(Dunlop); CMX001 0.31 μM): about 70%
reduction of BKV load at 96 hpi (BKV(Dunlop); CMX001 0.31 μM for 24 h): approximately 90%
effect on early gene (LT-ag) expression (BKV(Dunlop); CMX001 0.31 μM, 24 hpi): no effect; also recorded: No difference
reduction of late gene expression (BKV(Dunlop); CMX001 0.31 μM, 48 and 72 hpi): 70-90%
reduction of BKV DNA replication (intracellular BKV load) (BKV(Dunlop); CMX001 0.31 μM, 48 hpi): 94% and 90%
reduction of LT-ag mRNA (BKV(Dunlop); CMX001 0.31 μM, 48 hpi): 33%
reduction of agno, western blotting (BKV(Dunlop); CMX001 0.31 μM, 48 hpi): 97%
reduction of late mRNA levels (BKV(Dunlop); CMX001 0.31 μM, 48 hpi): 93%
reduction of BKV DNA replication (intracellular BKV load) (BKV(Dunlop); CMX001 0.31 μM, 72 hpi): 63% and 91%
reduction of LT-ag mRNA (BKV(Dunlop); CMX001 0.31 μM, 72 hpi): 64%
reduction of agno, western blotting (BKV(Dunlop); CMX001 0.31 μM, 72 hpi): 96%
reduction of late mRNA levels (BKV(Dunlop); CMX001 0.31 μM, 72 hpi): 82%
decrease of VP1, western blotting (BKV(Dunlop); CMX001 0.31 μM, 48 h p.i.): 86% and 85%
reduction of LTag staining (BKV(Dunlop); CMX001 0.31 μM, 48 h p.i.): 33%
decrease of VP1, western blotting (BKV(Dunlop); CMX001 0.31 μM, 72 h p.i.): 63% and 96%
reduction of LTag staining (BKV(Dunlop); CMX001 0.31 μM, 72 h p.i.): 30%
decrease in BKV agnoprotein expressing cells (BKV(Dunlop); CMX001 0.31 uM, immunofluorescence 72 h p.i.): approximately 60%
exposure time for IC-90 of BKV progeny loads at 96 hpi (BKV(Dunlop); CMX001 0.31 μM, CDV 40 μg/mL): 24 h
reduction of viral load by pre-treatment (BKV(Dunlop); pre-treatment 23-24 h until one hour before infection, BKV load 72 h p.i.): about 50%
effect of pre-treatment on BKV load (BKV(Dunlop); pre-treatment 4 hours, ending 20 hours before infection): hardly any effect; also recorded: did not inhibit BKV replication
antiviral activity of stored stock compared to freshly prepared drug (BKV(Dunlop); stock 1 mg/ml one week at 4° C.): less than 60%
antiviral activity of stored stock compared to freshly prepared drug (BKV(Dunlop); stock 1 mg/ml one week at −20° C.): approximately 90%
